Results: US11639350B2, “Heteroaryldihydropyrimidine derivatives and methods of treating hepatitis B infections” (Janssen Pharmaceutica NV, priority 2018, dated 2023)

How the values were obtained:
[1] = tested on: HBV; assay: HBV inhibitory activity: HBV DNA in the culture medium of HepG2.2.15 cells by q-PCR; format: cell-based; conditions: HepG2.2.15 cells, 6 days of compound treatment, HBV DNA in culture medium by q-PCR, highest concentration 10 μM; read-out: EC50
How it was run: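 HepG2.2.15 cells in 2% FBS medium, 40,000 per well, treated 6 days with compound (medium refreshed once), eight 3-fold dilutions from 10 μM top. HBV DNA extracted from culture medium and quantified by q-PCR; EC50 averaged over repeats. Cytotoxicity run in parallel at 5,000 cells per well, top 100 μM, giving CC50.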

[2] = tested on: HepG2.2.15 cells; assay: Cytotoxicity determination in HepG2.2.15 cells (CCK-8); format: cell-based; conditions: 6 days of compound treatment, CCK-8, highest concentration 100 μM
How it was run: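 HepG2.2.15 cells seeded at 5,000 cells/well in 2% FBS medium, incubated overnight at 37° C., then treated 6 days with compounds (8 points, 3-fold dilutions, top 100 μM), medium refreshed once midway. CCK-8 added for 2.5 h; A450 read against 630 nm reference; CC50 calculated, averaged over repeats.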

`COC(=O)C1=C(C2CCC(NC(C)=O)C2)NC(c2nccs2)=NC1c1ccc(F)c(F)c1Cl` (single isomer, unassigned) [Compound 300D, Methyl 6-(−3-acetamidocyclopentyl)-4-(2-chloro-3,4-difluorophenyl)-2-(thiazol-2-yl)-1,4-dihydropyrimidine-5-carboxylate] was tested, and the EC50 [1] was 14 nM and the CC50 [2] was 12600 nM.
For `COC(=O)C1=C(C2CCNC(=O)C2)NC(c2nccs2)=NC1c1ccc(F)cc1Cl` (single isomer, unassigned) [Compound 3C, Methyl 4-(2-chloro-4-fluorophenyl)-6-(2-oxopiperidin-4-yl)-2-(thiazol-2-yl)-1,4-dihydro-pyrimidine-5-carboxylate], the EC50 [1] was 132 nM and the CC50 [2] was 5600 nM.
For `COC(=O)C1=C(C2CCN(S(C)(=O)=O)CC2)NC(c2nccs2)=NC1c1ccc(F)cc1Br` (single isomer, unassigned) [Compound 120B, Methyl 4-(2-bromo-4-fluorophenyl)-6-(1-(methylsulfonyl)-piperidin-4-yl)-2-(thiazol-2-yl)-1,4-dihydropyrimidine-5-carboxylate], the EC50 [1] was 154 nM and the CC50 [2] was 16300 nM.
`COC(=O)C1=C(C2CCN(S(=O)(=O)CC3(C)CCC(C(=O)O)CC3)CC2)NC(c2nccs2)=NC1c1ccc(F)c(F)c1Cl` (single isomer, unassigned) [Compound 452B, (trans)-4-(((4-(6-(2-Chloro-3,4-difluorophenyl)-5-(methoxycarbonyl)-2-(thiazol-2-yl)-3,6-dihydropyrimidin-4-yl)piperidin-1-yl)sulfonyl)methyl)-4-methylcyclohexanecarboxylic Acid] gave an EC50 [1] of 5 nM and a CC50 [2] of 7700 nM.
Work on `COC(=O)C1=C(C2CCCOC2)NC(c2nccs2)=NC1c1ccc(F)cc1Cl` (single isomer, unassigned) [Compound 48A, Methyl 4-(2-chloro-4-fluorophenyl)-6-(tetrahydro-2H-pyran-3-yl)-2-(thiazol-2-yl)-1,4-dihydropyrimidine-5-carboxylate] yielded an EC50 [1] of 565 nM and a CC50 [2] of 46900 nM.
In the case of `CCOC(=O)C1=C(C2CCN(S(=O)(=O)C3CC(C)(C(=O)O)C3)CC2)NC(c2nccs2)=NC1c1ccc(F)cc1Cl` (stereo not drawn) [Compound 272A, (trans)-3-((4-(6-(2-Chloro-4-fluorophenyl)-5-(ethoxycarbonyl)-2-(thiazol-2-yl)-3,6-dihydropyrimidin-4-yl)piperidin-1-yl)sulfonyl)-1-methylcyclobutanecarboxylic Acid], the EC50 [1] is reported as 17 nM and the CC50 [2] is reported as 16600 nM.
`COC(=O)C1=C(C2CCOC2)NC(c2nccs2)=NC1c1cccc(F)c1Cl` (single isomer, unassigned) [Compound 74C, Methyl 4-(2-chloro-3-fluorophenyl)-6-(tetrahydrofuran-3-yl)-2-(thiazol-2-yl)-1,4-dihydropyrimidine-5-carboxylate] gave an EC50 [1] of 249 nM and a CC50 [2] of 86500 nM.
Work on `COC(=O)C1=C(C2CCCN(S(C)(=O)=O)CC2)NC(c2nccs2)=NC1c1ccc(F)cc1Cl` (single isomer, unassigned) [Compound 383D, Methyl 4-(2-chloro-4-fluorophenyl)-6-(1-(methylsulfonyl)azepan-4-yl)-2-(thiazol-2-yl)-1,4-dihydropyrimidine-5-carboxylate] yielded an EC50 [1] of 148 nM and a CC50 [2] of 31500 nM.
`CCOC(=O)C1=C(C2CCN(S(=O)(=O)C3CC(C)(C(=O)O)C3)CC2)NC(c2nccs2)=NC1c1cccc(F)c1Cl` (single isomer, unassigned) [Compound 321B, (cis)-3-((4-(6-(2-Chloro-3-fluorophenyl)-5-(ethoxycarbonyl)-2-(thiazol-2-yl)-3,6-dihydropyrimidin-4-yl)piperidin-1-yl)sulfonyl)-1-methylcyclobutanecarboxylic Acid] gave an EC50 [1] of 60 nM and a CC50 [2] of 15800 nM.
Compound `COC(=O)C1=C(C2CCN(S(=O)(=O)CC3(C)CCC(C(=O)O)CC3)CC2)NC(c2nccs2)=NC1c1ccc(F)cc1Cl` (single isomer, unassigned) [Compound 450B, (trans)-4-(((4-(6-(2-Chloro-4-fluorophenyl)-5-(methoxycarbonyl)-2-(thiazol-2-yl)-3,6-dihydropyrimidin-4-yl)piperidin-1-yl)sulfonyl)methyl)-4-methylcyclohexanecarboxylic Acid] has an EC50 [1] of 7 nM and a CC50 [2] of 14000 nM.
`COC(=O)C1=C(C2CCN(S(=O)(=O)CC(=O)O)C2)NC(c2nccs2)=NC1c1ccc(F)cc1Cl` (single isomer, unassigned) [Compound 214C, 2-((−3-(−6-(2-Chloro-4-fluorophenyl)-5-(methoxycarbonyl)-2-(thiazol-2-yl)-3,6-dihydropyrimidin-4-yl)pyrrolidin-1-yl)sulfonyl)acetic Acid] showed an EC50 [1] of 784 nM and a CC50 [2] of over 100000 nM.
`CCOC(=O)C1=C(C2CCN(S(=O)(=O)C3CC(C)(C(=O)O)C3)CC2)NC(c2nccs2)=NC1c1cccc(F)c1Br` (single isomer, unassigned) [Compound 414D, (cis)-3-((4-(6-(2-Bromo-3-fluorophenyl)-5-(ethoxycarbonyl)-2-(thiazol-2-yl)-3,6-dihydropyrimidin-4-yl)piperidin-1-yl)sulfonyl)-1-methylcyclobutanecarboxylic Acid] showed an EC50 [1] of 39 nM and a CC50 [2] of 16300 nM.
Compound `COC(=O)C1=C(C2CCC(C(=O)O)C2)NC(c2nccs2)=NC1c1ccc(F)cc1Cl` (single isomer, unassigned) [Compound 72F, 3-(6-(2-Chloro-4-fluorophenyl)-5-(methoxycarbonyl)-2-(thiazol-2-yl)-3,6-dihydropyrimidin-4-yl)cyclopentanecarboxylic Acid] has an EC50 [1] of 58 nM and a CC50 [2] of 30000 nM.
Compound `COC(=O)C1=C(C2CCN(S(=O)(=O)C3CC(C)(C(=O)OC)C3)CC2)NC(c2nccs2)=NC1c1ccc(F)c(F)c1Cl` (single isomer, unassigned) [Compound 323D, cis-methyl 4-(2-chloro-3,4-difluorophenyl)-6-(1-((3-(methoxycarbonyl)-3-methylcyclobutyl)sulfonyl)piperidin-4-yl)-2-(thiazol-2-yl)-1,4-dihydropyrimidine-5-carboxylate] has an EC50 [1] of 30 nM and a CC50 [2] of 28600 nM.
With `CCOC(=O)C1=C(C2CCN(S(=O)(=O)[C@H]3C[C@H](C(=O)O)C3)CC2)NC(c2nccs2)=NC1c1ccc(F)c(F)c1C` (single isomer, unassigned) [Compound 343C, (trans)-3-((4-(6-(3,4-difluoro-2-methylphenyl)-5-(ethoxycarbonyl)-2-(thiazol-2-yl)-3,6-dihydropyrimidin-4-yl)piperidin-1-yl)sulfonyl)cyclobutanecarboxylic Acid] the EC50 [1] was 14 nM and the CC50 [2] was 25200 nM.
Work on `COC(=O)C1=C(C2CCN(C)C(=O)C2)NC(c2nccs2)=NC1c1ccc(F)cc1Cl` (single isomer, unassigned) [Compound 1A, Methyl 4-(2-chloro-4-fluorophenyl)-6-(1-methyl-2-oxopiperidin-4-yl)-2-(thiazol-2-yl)-1,4-dihydropyrimidine-5-carboxylate] yielded an EC50 [1] of 386 nM and a CC50 [2] of 90200 nM.
For `COC(=O)C1=C(C2COC(CO)C2)NC(c2nccs2)=NC1c1cccc(F)c1Cl` (single isomer, unassigned) [Compound 219C, Methyl 4-(2-chloro-3-fluorophenyl)-6-(5-(hydroxymethyl)-tetrahydrofuran-3-yl)-2-(thiazol-2-yl)-1,4-dihydropyrimidine-5-carboxylate], the EC50 [1] was 176 nM and the CC50 [2] was 10300 nM.
`CCCS(=O)(=O)N1CCC(C2=C(C(=O)OC)C(c3ccc(F)cc3Cl)N=C(c3nccs3)N2)C1` (single isomer, unassigned) [Compound 256D, Methyl 4-(2-chloro-4-fluorophenyl)-6-(−1-(propylsulfonyl)pyrrolidin-3-yl)-2-(thiazol-2-yl)-1,4-dihydropyrimidine-5-carboxylate] showed an EC50 [1] of 964 nM and a CC50 [2] of 22900 nM.
In the case of `COC(=O)C1=C(C2CCC(NC(C)=O)C2)NC(c2nccs2)=NC1c1ccc(F)c(F)c1Cl` (single isomer, unassigned) [Compound 300G, Methyl 6-(−3-acetamidocyclopentyl)-4-(2-chloro-3,4-difluorophenyl)-2-(thiazol-2-yl)-1,4-dihydropyrimidine-5-carboxylate], the EC50 [1] is reported as 122 nM and the CC50 [2] is reported as 23900 nM.
`COC(=O)C1=C(C2CCC(NC(C)=O)C2)NC(c2nccs2)=NC1c1ccc(F)c(F)c1Cl` (single isomer, unassigned) [Compound 300B, Methyl 6-(−3-acetamidocyclopentyl)-4-(2-chloro-3,4-difluorophenyl)-2-(thiazol-2-yl)-1,4-dihydropyrimidine-5-carboxylate] showed an EC50 [1] of 13 nM and a CC50 [2] of 28600 nM.
Compound `CCOC(=O)C1=C(C2CCN(S(=O)(=O)C3CC(C)(C(=O)O)C3)CC2)NC(c2nccs2)=NC1c1cccc(F)c1C` (single isomer, unassigned) [Compound 429C, (trans)-3-((4-(−5-(Ethoxycarbonyl)-6-(3-fluoro-2-methylphenyl)-2-(thiazol-2-yl)-3,6-dihydropyrimidin-4-yl)piperidin-1-yl)sulfonyl)-1-methylcyclobutanecarboxylic Acid] has an EC50 [1] of 66 nM and a CC50 [2] of 25500 nM.
`CCCS(=O)(=O)N1CCC(C2=C(C(=O)OC)C(c3ccc(F)cc3Cl)N=C(c3nccs3)N2)C1` (single isomer, unassigned) [Compound 256A, Methyl 4-(2-chloro-4-fluorophenyl)-6-(−1-(propylsulfonyl)pyrrolidin-3-yl)-2-(thiazol-2-yl)-1,4-dihydropyrimidine-5-carboxylate] was tested, and the EC50 [1] was 82 nM and the CC50 [2] was over 100000 nM.
